In assay [1] the target is T1, RARβ (Homo sapiens, UniProt P10826).
T1 sequence (P10826 1-455): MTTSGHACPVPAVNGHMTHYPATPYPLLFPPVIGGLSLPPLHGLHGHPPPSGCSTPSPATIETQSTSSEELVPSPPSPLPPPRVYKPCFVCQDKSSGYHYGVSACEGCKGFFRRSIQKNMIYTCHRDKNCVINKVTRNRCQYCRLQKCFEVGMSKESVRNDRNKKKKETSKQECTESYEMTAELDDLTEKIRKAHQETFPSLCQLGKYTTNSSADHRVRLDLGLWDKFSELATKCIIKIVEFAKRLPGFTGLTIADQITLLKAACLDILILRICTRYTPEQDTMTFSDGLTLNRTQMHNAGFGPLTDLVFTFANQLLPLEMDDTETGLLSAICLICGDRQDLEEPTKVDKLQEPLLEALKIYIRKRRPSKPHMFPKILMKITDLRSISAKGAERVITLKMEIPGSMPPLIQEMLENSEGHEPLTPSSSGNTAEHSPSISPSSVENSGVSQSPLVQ
The experiment in a line: Ligand binding assay. From the text: (§1) Other assays described below, measure the ability of the compounds of the present invention to bind to, and/or activate various retinoid receptor subtypes. When in these assays a compound binds to a given receptor subtype and activates the transcription of a reporter gene through that subtype, then the compound is considered an agonist of that receptor subtype. […] In the below described assays the ability of the compounds to bind to RARα, RARβ, RARγ, RXRα, RXRβ and RXRΓ receptors, and the ability or inability of the compounds to activate transcription of a reporter gene through these receptor subtypes can be tested.
(§2) A holoreceptor transactivation assay and a ligand binding assay which measure the antagonist/agonist like activity of the compounds of the invention, or their ability to bind to the several retinoid receptor subtypes, respectively, are described in published PCT Application No. WO WO93/11755 (particularly on pages 30-33 and 37-41) published on Jun. 24, 1993, the specification of which is also incorporated herein by reference. A description of the holoreceptor transactivation assay is also provided below.
(§3) CV1 cells (5,000 cells/well) were transfected with an RAR reporter plasmid MTV-TREp-LUC (50 ng) along with one of the RAR expression vectors (10 ng) in an automated 96-well format by the calcium phosphate procedure of Heyman et al. Cell 68, 397-406, (1992). For RXRα and RXRγ transactivation assays, an RXR-responsive reporter plasmid CRBPII-tk-LUC (50 ng) along with the appropriate RXR expression vectors (10 ng) was used substantially as described by Heyman et al. above, and Allegretto et al. J. Biol. Chem. 268, 26625-26633. For RXRβ transactivation assays, an RXR-responsive reporter plasmid CPRE-tk-LUC ([…]) along with RXRβ expression vector ([…]) was used as described in above. These reporters contain DRI elements from human CRBPII and certain DRI elements from promoter, respectively. (see Mangelsdorf et al. The Retinoids: Biology, Chemistry and Medicine, pp 319-349, Raven Press Ltd., New York and Heyman et al., cited above) (1, 8). A β-galactosidase (50 ng) expression vector was used as an internal control in the transfections to normalize for variations in transfection efficiency. The cells were transfected in triplicate for 6 hours, followed by incubation with retinoids for 36 hours, and the extracts were assayed for luciferase and β-galactosidase activities. The detailed experimental procedure for holoreceptor transactivations has been described in Heyman et al. above, and Allegretto et al. cited above. The results obtained in this assay are expressed in EC50 numbers, as they are also in the chimeric receptor transactivation assay. The Heyman et al. Cell 68, 397-406, Allegretto et al. J. Biol. Chem. 268, 26625-26633, and Mangelsdorf et al. The Retinoids: Biology, Chemistry and Medicine, pp 319-349, Raven Press Ltd., New York, are expressly incorporated herein by reference. The results of ligand binding assay are expressed in Kd numbers. (See Cheng et al. Biochemical Pharmacology Vol. 22 pp 3099-3108, expressly incorporated herein by reference.)

For assay [2], the target named is T2, RARα (Homo sapiens, UniProt P10276).
T2 sequence (P10276 1-462): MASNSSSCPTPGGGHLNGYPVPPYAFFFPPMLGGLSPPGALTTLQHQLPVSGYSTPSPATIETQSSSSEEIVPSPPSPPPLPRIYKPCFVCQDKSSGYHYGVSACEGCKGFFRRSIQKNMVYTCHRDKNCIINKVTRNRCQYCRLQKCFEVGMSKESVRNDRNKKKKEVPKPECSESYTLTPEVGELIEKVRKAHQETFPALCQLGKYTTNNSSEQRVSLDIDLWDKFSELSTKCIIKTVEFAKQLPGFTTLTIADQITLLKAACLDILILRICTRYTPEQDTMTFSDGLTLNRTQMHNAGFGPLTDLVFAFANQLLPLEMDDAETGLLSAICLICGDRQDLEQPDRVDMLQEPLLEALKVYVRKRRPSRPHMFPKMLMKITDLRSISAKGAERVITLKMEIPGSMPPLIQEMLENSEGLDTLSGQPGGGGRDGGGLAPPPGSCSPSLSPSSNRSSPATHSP
As to the kind of experiment: Ligand binding assay.
From the text: as §1, §2, §3

In assay [3] the target is T3, RARγ (Homo sapiens, UniProt P13631).
T3 sequence (P13631 1-454): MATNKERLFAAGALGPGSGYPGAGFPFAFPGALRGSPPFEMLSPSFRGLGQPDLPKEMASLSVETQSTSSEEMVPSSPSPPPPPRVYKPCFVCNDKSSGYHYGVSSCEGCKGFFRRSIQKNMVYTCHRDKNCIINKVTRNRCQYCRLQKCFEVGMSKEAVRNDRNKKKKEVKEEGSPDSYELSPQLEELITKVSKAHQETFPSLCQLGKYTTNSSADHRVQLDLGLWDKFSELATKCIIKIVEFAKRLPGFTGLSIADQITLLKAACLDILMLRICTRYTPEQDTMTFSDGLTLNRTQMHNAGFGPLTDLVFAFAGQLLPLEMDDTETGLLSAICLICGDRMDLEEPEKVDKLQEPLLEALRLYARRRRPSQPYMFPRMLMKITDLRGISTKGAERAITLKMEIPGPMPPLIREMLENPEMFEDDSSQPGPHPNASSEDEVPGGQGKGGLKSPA
The experiment in a line: Ligand binding assay.
From the text: as §1, §2, §3

Assay [4] concerns ornithine decarboxylase (ODC). As to the kind of experiment: ODC assay: inhibition of TPA induction of ornithine decarboxylase activity. To be noted: concentration of the test compound which causes 80% inhibition in the ODC assay; cell marked (IC80). The class given is in vivo. The text has this:
A classic measure of retinoic acid activity involves measuring the effects of retinoic acid on ornithine decarboxylase. […] That reference discloses that ornithine decarboxylase (ODC) activity increased precedent to polyamine biosynthesis. It has been established elsewhere that increases in polyamine synthesis can be correlated or associated with cellular proliferation. Thus, if ODC activity could be inhibited, cell hyperproliferation could be modulated. Although all cases for ODC activity increases are unknown, it is known that 12-0-tetradecanoylphorbol-13-acetate (TPA) induces ODC activity. Retinoic acid inhibits this induction of ODC activity by TPA.

This note sets out measurements from patent publication US6465663B2, “O- or S-substituted tetrahydronaphthalene derivatives having retinoid and/or retinoid antagonist-like biological activity” (Allergan, Inc., priority 1996, dated 2002).

Each structure is given as a SMILES string. Where only a bound is given, the exact number is not on record here.

As a reminder, the Kd is the concentration at which binding is half-saturated. The low end stands for a tighter complex, the high end for a looser complex.

With `CC1(C)CCC(OC2CCCCO2)c2cc(C(=O)Oc3ccc(C(=O)O)cc3)ccc21` (single isomer, unassigned) [Compound E67, 4-[5,6,7,8-tetrahydro-8(S or R)-(2′(S or R)tetrahydropyranoxy)-5,5-dimethyl-2-napthoyloxy]benzoic Acid], the Kd in assay [1] was 302 nM; in assay [2], 77 nM; in assay [3] it was 375 nM.
The corresponding values for `CC(C)(C)C1=CCC(C)(C)c2ccc(C(=O)Nc3ccc(C(=O)O)cc3)cc21` [Compound E80, 4-[(5,5-dimethyl-5,6-dihydro-8-(1,1-dimethylethyl)-2-naphthalenyl)carboxamido]-benzoic Acid] are 531 nM, 394 nM and 901 nM.
On the same counts, the results for `CCC(CC)=C1CCC(C)(C)c2ccc(/C=C/c3ccc(C(=O)O)cc3)cc21` [Compound A28, (E)-4-[2-(5,6-Dihydro-5,5-dimethyl-8(7H)-(pentyliden-3-yl)-naphthalen-2-yl)ethenyl]benzoic acid] are 3 nM, 4 nM and 42 nM.
On the same counts, the results for `CC1(C)CC=C(Sc2ccccc2)c2cc(/C=C/c3ccc(C(=O)O)cc3)ccc21` [Compound A18, (E)-4-[2-(5,6-dihydro-5,5-dimethyl-8-(phenylthio)-naphthalen-2-yl)ethenyl] benzoic acid] are 193 nM, 538 nM and 162 nM.
For `CC(C)=C1CCC(C)(C)c2ccc(C(=O)Oc3ccc(C(=O)O)cc3)cc21` [Compound E14], the values for the dissociation constant (Kd) in assay [1], in assay [2] and in assay [3] were 35 nM, 36 nM and 455 nM, respectively.
On to `CC(C)=C1CCC(C)(C)c2ccc(C(=O)Nc3ccc(C(=O)O)cc3)cc21` [Compound E17], for which the Kd is 378 nM in assay [1], 192 nM in assay [2] and over 1000 nM in assay [3].
On to `CC1(C)CC=C(c2cccs2)c2ccc(C(=O)C=Cc3ccc(C(=O)O)cc3)cc21` [Compound D34, 4-[3-oxo-3-(7,8-dihydro-5-(2-thienyl)-8,8-dimethyl-2-naphthalenyl)-1-propenyl]-benzoic acid], for which the Kd is 200 nM in assay [1], 235 nM in assay [2] and 530 nM in assay [3]. Moreover, the IC80 in assay [4] was 4.3 (IC80) nmols.
As for `CC1(C)CC=C(S(=O)(=O)c2ccccc2)c2cc(C(=O)Oc3ccc(C(=O)O)cc3)ccc21` [Compound E27], the values for the Kd in assay [1], in assay [2] and in assay [3] were 535 nM, 551 nM and over 1000 nM, respectively.
On the same counts, the results for `CCO/N=C1\CCC(C)(C)c2ccc(/C(C)=C/C=C/C(C)=C/C(=O)O)cc21` [Compound C25, 7-[4,4-dimethyl-3,4-dihydro-1(2H)-anti-(O-ethyl oxime)-naphth-7-yl]3,7-dimethyl-hepta-2(E),4(E),6(E)-trienoic Acid] are 12 nM, 19 nM and 42 nM.
On to `COCOC1CCC(C)(C)c2ccc(N=Nc3ccc(C(=O)O)cc3)cc21` (racemic) [Compound D7, (+/−) 4-[(5,5-Dimethyl-8-(methoxymethyloxy)-5,6,7,8-tetrahydronaphthalen-2-yl)azo]benzoic Acid], for which the Kd in assay [1] was 226 nM; in assay [2], over 1000 nM; in assay [3], over 1000 nM.
Consider `CC1(C)CCC2(SCCCS2)c2cc(/C=C/c3ccc(C(=O)O)cc3)ccc21` [Compound A24], for which the Kd in assay [1] was 92 nM; in assay [2], 283 nM; in assay [3], 259 nM.
For the compound `CC1(C)CCC(=O)c2cc(/C=C/c3ccc(C(=O)O)cc3)ccc21` [Compound A2a, (E)-4-[2-(5,6,7,8-tetrahydro-5,5-dimethyl-8-oxo-2-naphthalenyl)ethenyl]-benzoic acid], the results for the Kd in assay [1], in assay [2] and in assay [3] were 219 nM, 150 nM and 421 nM, respectively.
Take `CCO/N=C1\CCC(C)(C)c2ccc(/C=C/c3ccc(C(=O)O)cc3)cc21` [Compound A6, (E)-4-[2-(5,5-Dimethyl-5,6,-dihydro-8(7H)-anti-(O-ethyl oxime)-naphthalen-2-yl)ethenyl]-benzoic acid]: the Kd amounted to 36 nM in assay [1], 125 nM in assay [2] and 127 nM in assay [3].
